The structures appear in SMILES notation.

IC50 data for 9 compounds are collected here from patent US8227613B2, “Heteroaryl carboxamide derivatives” (Hoffmann-La Roche Inc., priority 2008, dated 2012).

The target of this test is T1, human chemokine receptor 2 isoform B (CCR2B) (Homo sapiens, UniProt P41597).
T1 construct: host or cells: CHO-K1 (CHOK1-CCR2B-A5)
T1 sequence (P41597 1-360 isoform P41597-2): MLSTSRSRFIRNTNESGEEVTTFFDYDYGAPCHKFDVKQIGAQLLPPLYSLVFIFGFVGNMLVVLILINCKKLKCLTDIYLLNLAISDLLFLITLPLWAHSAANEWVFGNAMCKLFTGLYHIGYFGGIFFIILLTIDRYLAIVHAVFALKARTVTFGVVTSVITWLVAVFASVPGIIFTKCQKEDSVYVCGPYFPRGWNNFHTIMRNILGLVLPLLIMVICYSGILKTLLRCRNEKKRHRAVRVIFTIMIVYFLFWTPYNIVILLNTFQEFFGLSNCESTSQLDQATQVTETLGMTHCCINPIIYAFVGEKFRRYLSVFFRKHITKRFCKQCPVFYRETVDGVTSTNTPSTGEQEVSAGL
The experiment in a line: Calcium mobilization assay (FLIPR, MCP-1 stimulated CHOK1-CCR2B-A5 cells). The test is classed as cell-based. The settings on record: 20 nM MCP-1, antagonist activity, read-out: IC50 (inhibitor concentration required for 50% inhibition of specific calcium increases). The method, then:
Calcium Mobilization Assay
CHOK1-CCR2B-A5 cells (from Euroscreen) stably overexpressing the human chemokine receptor 2 isoform B were cultured in Nutrient Hams F12 medium supplemented with 5% FBS, 100 U/ml penicillin, 100 μg/ml streptomycin, 400 μg/ml G418 and 5 μg/ml puromycin.
For the assay cells were grown overnight in 384-well black clear flat bottom polystyrene plates (Costar) at 37° C. at 5% CO2. After washing with DMEM, 20 mM Hepes, 2.5 mM probenecid, 0.1% BSA (DMEM assay buffer) cells were loaded with 4 μM Fluo-4 in the same DMEM assay buffer for 2 hours at 30° C. Excess dye was removed and cells were washed with DMEM assay buffer. 384-well compound plates were prepared with DMEM assay buffer/0.5% DMSO with or without various concentrations of test compounds. Usually compounds were tested for agonist and antagonist activity.
Test compounds were added to the assay plate and agonist activity was monitored as fluorescence for 80 seconds with a FLIPR (488 nm excitation; 510-570 nm emission; Molecular Devices). After 20-30 min. of incubation at 30° C., 20 nM MCP-1 (R&D; Roche) was added and fluorescence was monitored again for 80 seconds. Increases in intracellular calcium are reported as maximum fluorescence after agonist exposure minus basal fluorescence before exposure. Antagonist activity is indicated as inhibitor concentration required for 50% inhibition of specific calcium increases.
On the technique in general: A change in cytosolic calcium serves as a functional read-out for many receptors and channels.
Turning to `Cc1cc(-c2cccc(C(F)(F)F)c2)c(-c2ccnn2C)nc1C(=O)N1CCC(N2CCCC2)CC1` [Example 53, [3-Methyl-6-(2-methyl-2H-pyrazol-3-yl)-5-(3-trifluoromethyl-phenyl)-pyridin-2-yl]-(4-pyrrolidin-1-yl-piperidin-1-yl)-methanone], the IC50 was 15 nM.

As to `Cc1cc(-c2cccc(C(F)(F)F)c2)c(C(=O)N2CCN(C(=O)OC(C)(C)C)CC2)nc1C(=O)N1CCC(N2CCCC2)CC1` [Example 59, 4-[5-Methyl-6-(4-pyrrolidin-1-yl-piperidine-1-carbonyl)-3-(3-trifluoromethyl-phenyl)-pyridine-2-carbonyl]-piperazine-1-carboxylic acid tert-butyl ester], the IC50 worked out at 490 nM.

As to `Cc1cc(-c2cccc(C(F)(F)F)c2)c(NCCN)nc1C(=O)N1CCC(N2CCCC2)CC1` [Example 26, [6-(2-Amino-ethylamino)-3-methyl-5-(3-trifluoromethyl-phenyl)-pyridin-2-yl]-(4-pyrrolidin-1-yl-piperidin-1-yl)-methanone], the IC50 is 67 nM.

In the case of `Cc1cc(-c2cccc(C(F)(F)F)c2)c(N)nc1C(=O)N1CCC(N2CCCC2)CC1` [Example 7, [6-Amino-3-methyl-5-(3-trifluoromethyl-phenyl)-pyridin-2-yl]-(4-pyrrolidin-1-yl-piperidin-1-yl)-methanone], the IC50 stood at 16 nM.

`Cc1cc(-c2cc(C(F)(F)F)ccc2F)c[n+]([O-])c1C(=O)N1CCC(N2CCCC2)CC1` [Example 67, [5-(2-Fluoro-5-trifluoromethyl-phenyl)-3-methyl-1-oxy-pyridin-2-yl]-(4-pyrrolidin-1-yl-piperidin-1-yl)-methanone]: the IC50 turned out to be 59 nM.

`COC(=O)c1nc(C(=O)N2CCC(N3CCCC3)CC2)c(C)cc1-c1cccc(C(F)(F)F)c1` [Example 45, 5-Methyl-6-(4-pyrrolidin-1-yl-piperidine-1-carbonyl)-3-(3-trifluoromethyl-phenyl)-pyridine-2-carboxylic acid methyl ester]: the IC50 was 7.5 nM.

With `Cc1cc(-c2cccc(C(F)(F)F)c2)c(-n2cncn2)nc1C(=O)N1CCC(N2CCCC2)CC1` [Example 25, [3-Methyl-6-[1,2,4]triazol-1-yl-5-(3-trifluoromethyl-phenyl)-pyridin-2-yl]-(4-pyrrolidin-1-yl-piperidin-1-yl)-methanone], the IC50 was 2.3 nM.

Take `Cc1cc(-c2cccc(C(F)(F)F)c2)c(-c2cc[nH]n2)nc1C(=O)N1CCC(N2CCCC2)CC1` [Example 49, [3-Methyl-6-(1H-pyrazol-3-yl)-5-(3-trifluoromethyl-phenyl)-pyridin-2-yl]-(4-pyrrolidin-1-yl-piperidin-1-yl)-methanone]: the IC50 amounted to 10 nM.

Turning to `Cc1cc(-c2cccc(C(F)(F)F)c2)c(-c2ccc(N)nc2)nc1C(=O)N1CCC(N2CCCC2)CC1` [Example 40, [6′-Amino-5-methyl-3-(3-trifluoromethyl-phenyl)-[2,3′]bipyridinyl-6-yl]-(4-pyrrolidin-1-yl-piperidin-1-yl)-methanone], the IC50 amounted to 3.9 nM.
